In patent US4389398A, “Amino glycoside antibiotics having antiprotozoal and anthelmintic activity” (priority 1978, dated 1983):
≈ marks a conversion by molar mass, not a printed value. Read-outs that look alike come from different tables or passages of the source.

What was measured:
Trichomonas vaginalis [1] = experiment: In vitro activity against Trichomonas vaginalis; assay type: cell-based; conditions: for MIC / MBC: Trichomonas vaginalis; for MIC: read-out: Minimal 99% Suppression Level; for MBC: read-out: Minimal Cidal Level
Description: In Table VI below is set forth the in vitro activity of the compounds of this invention against T. vaginalis. The test procedure used was substantially as described by R. J. Schnitzer on pages 289-331 in Experimental Chemotherapy, Volume 1, Academic Press, New York (1963).

Trichomonas vaginalis [2] = conditions: at somewhat high dose ranges; cited from earlier work
Entamoeba histolytica [3] = conditions: Albach et al., Am. J. Trop. Med. Hyg. 15, 885 (1965); cited from earlier work
Bacillus subtilis = experiment: In vitro minimal inhibitory concentration, Bacillus subtilis; assay type: cell-based; conditions: free base; yeast beef broth medium, pH 7.4; read-out: MIC
Description: (§1) In Table III below is set forth the in vitro minimal inhibitory concentration of gentamicin B, gentamicin B1 and gentamicin X all in the free base form against a variety of gram positive and gram negative microorganisms. The experiments were carried out in a yeast beef broth medium at pH 7.4.

Escherichia coli = experiment: In vitro minimal inhibitory concentration, Escherichia coli; assay type: cell-based; conditions: free base; yeast beef broth medium, pH 7.4; read-out: MIC
Description: as §1

Klebsiella pneumoniae = experiment: In vitro minimal inhibitory concentration, Klebsiella pneumoniae; assay type: cell-based; conditions: free base; yeast beef broth medium, pH 7.4; read-out: MIC
Description: as §1

Pseudomonas aeruginosa = experiment: In vitro minimal inhibitory concentration, Pseudomonas aeruginosa; assay type: cell-based; conditions: free base; yeast beef broth medium, pH 7.4; read-out: MIC
Description: as §1

Staphylococcus aureus = experiment: In vitro minimal inhibitory concentration, Staphylococcus aureus; assay type: cell-based; conditions: free base; yeast beef broth medium, pH 7.4; read-out: MIC
Description: as §1

Streptococcus pyogenes = experiment: In vitro minimal inhibitory concentration, Streptococcus pyogenes; assay type: cell-based; conditions: free base; yeast beef broth medium, pH 7.4; read-out: MIC
Description: as §1

[4] = system: Staphylococcus aureus Gray; experiment: Protective activity in mice, Staphylococcus aureus Gray infection; assay type: in vivo; conditions: sc, subcutaneous one hour after infection, survivors at 48 hours, read-out: PD50
Description: (§2) Infected non-treated controls die in about 18 to 24 hours. Generally 5-7 dose levels are administered to mice weighing about 20 grams in groups of 7-10.

[5] = system: Pseudomonas aeruginosa SC; experiment: Protective activity in mice, Pseudomonas aeruginosa SC infection; assay type: in vivo; conditions: subcutaneous one hour after infection, survivors at 48 hours, read-out: PD50
Description: as §2

Escherichia coli SC = experiment: Protective activity in mice, Escherichia coli SC infection; assay type: in vivo; conditions: subcutaneous one hour after infection, survivors at 48 hours, read-out: PD50
Description: as §2

Acute toxicity in mice = conditions: mouse, in vivo
Description: The acute toxicity of gentamicin B, gentamicin B1 and gentamicin X is determined in male CF-1 (Carworth Farms) mice weighing about 20 grams each.

Entamoeba hystolytica = experiment: Activity against Entamoeba hystolytica (MIC and minimal cidal concentration); assay type: cell-based; conditions: 48 hours
Syphacia obvelata [6] = experiment: Anthelmintic activity in vivo against Syphacia obvelata in mice; parameters: species or system male Millerton mice
Trichomonas vaginalis [7] = experiment: Stated activity against Trichomonas vaginalis
Entamoeba histolytica [8] = experiment: Stated activity against Entamoeba histolytica
Histomonas meleagridis [9] = experiment: Stated activity against Histomonas meleagridis
Trichomonas foetus = experiment: Stated activity against Trichomonas foetus
Syphacia obvelata [10] = experiment: Stated anthelmintic activity against pinworms such as Syphacia obvelata
Histomonas meleagridis [11] = experiment: Prophylactic activity in turkeys against Histomonas meleagridis; assay type: in vivo; conditions: turkeys inoculated orally with 500 Heterakis gallinae ova
Description: Gentamicin A was administered to groups of turkeys at dosage levels of 5, 10, and 15 mg. per turkey per day in aqueous solution. Two days after the initiation of the drug, the turkeys were inoculated orally with 500 Heterakis gallinae ova (the intermediate host carrier of Histomonas). A single group of turkeys received 0.035% of gentamicin A in their feed for six days. Untreated infected controls were also carried in each experiment. The test is continued for twelve days and the birds are autopsied on the thirteenth day. Infection is usually manifested principally in two areas, the cecum and the liver which are the areas examined during the autopsy.

bacteria = conditions: cited from earlier work

For “Gentamicin C [Garamycin®, reference compound]”, the “Minimal 99% Suppression Level” value (Trichomonas vaginalis [1]; 24 hours) was 250 µg/mL, the “Minimal Cidal Level” value (Trichomonas vaginalis [1]; 24 hours) was > 250 µg/mL and the “Minimal 99% Suppression Level” value (Trichomonas vaginalis [1]; 48 hours) was 100 µg/mL. The “Minimal Cidal Level” value (Trichomonas vaginalis [1]; 48 hours) was 100 µg/mL, the “activity against T. vaginalis (in words)” value (Trichomonas vaginalis [2]) was “only slight activity” and the “activity against E. histolytica (in words)” value (Entamoeba histolytica [3]) was “relatively ineffective”.

For `CNC1C(O)C(OC2C(N)CC(N)C(OC3OC(CO)C(O)C(O)C3N)C2O)OCC1(C)O` (centres unmarked) [Gentamicin X], the MIC (Bacillus subtilis) was 0.03 µg/mL (≈ 0.0622 µM), the MIC (Escherichia coli) was 0.3 µg/mL (≈ 0.622 µM) and the MIC (Klebsiella pneumoniae) was 0.75 µg/mL (≈ 1.55 µM). The MIC (Pseudomonas aeruginosa) was 0.3 to 0.75 µg/mL (≈ 0.622 to 1.55 µM), the MIC (Staphylococcus aureus) was 0.08 to 0.75 µg/mL (≈ 0.166 to 1.55 µM) and the MIC (Streptococcus pyogenes) was 0.3 to 0.75 µg/mL (≈ 0.622 to 1.55 µM). It also gave an ED50 [4] of 4 mg/kg, an ED50 [5] of 7 mg/kg and an ED50 (Escherichia coli SC) of 1.5 mg/kg. For the same molecule, the LD50 (Acute toxicity in mice; ip) was > 1000 mg/kg, the LD50 (Acute toxicity in mice; iv) was 225 mg/kg and the MIC (Trichomonas vaginalis [1]; 48 hours) was 2.5 µg/mL (≈ 5.18 µM). For the same molecule, the MBC (Trichomonas vaginalis [1]; 48 hours) was 10 µg/mL (≈ 20.7 µM), the MBC (Entamoeba hystolytica) was 7 µg/mL (≈ 14.5 µM) and the MIC (Entamoeba hystolytica; read-out: minimal inhibitory concentration) was 4 µg/mL (≈ 8.29 µM). For the same molecule, the “anthelmintic effect (in words)” value (Syphacia obvelata [6]; 62 mg/kg/day) was “partially effective”, the “% Infected” value (Syphacia obvelata [6]; 62 mg/kg/day, 0.05% in diet) was 83% and the “Mean Worm Burden” value (Syphacia obvelata [6]; 62 mg/kg/day, 0.05% in diet) was 27. The “anthelmintic effect (in words)” value (Syphacia obvelata [6]; 310 mg/kg/day) was “totally effective”, the “% Infected” value (Syphacia obvelata [6]; 310 mg/kg/day, 0.25% in diet) was 0% and the “Mean Worm Burden” value (Syphacia obvelata [6]; 310 mg/kg/day, 0.25% in diet) was 0. For the same molecule, the “anthelmintic activity (in words)” value (Syphacia obvelata [6]; male Millerton mice) was “exhibit anthelmintic activity”, the “antiprotozoal activity (in words)” value (Trichomonas vaginalis [7]) was “effective” and the “antiprotozoal activity (in words)” value (Entamoeba histolytica [8]) was “effective”. The “antiprotozoal activity (in words)” value (Histomonas meleagridis [9]) was “effective”, the “antiprotozoal activity (in words)” value (Trichomonas foetus) was “effective” and the “anthelmintic activity (in words)” value (Syphacia obvelata [10]) was “effective”.

With `CNC1C(O)COC(OC2C(N)CC(N)C(OC3OC(CO)C(O)C(O)C3N)C2O)C1O` (centres unmarked) [Gentamicin A] the MIC (Trichomonas vaginalis [1]; 24 hours) was 10 µg/mL (≈ 21.3 µM), the MBC (Trichomonas vaginalis [1]; 24 hours) was 25 µg/mL (≈ 53.4 µM) and the MIC (Trichomonas vaginalis [1]; 48 hours) was 5 to 10 µg/mL (≈ 10.7 to 21.3 µM). For the same molecule, the MBC (Trichomonas vaginalis [1]; 48 hours) was 10 µg/mL (≈ 21.3 µM), the “minimum dosage level with prophylactic activity” value (Histomonas meleagridis [11]) was 10 mg. per bird and the “antiprotozoal activity (in words)” value (Trichomonas vaginalis [7]) was “effective”. For the same molecule, the “antiprotozoal activity (in words)” value (Entamoeba histolytica [8]) was “effective”, the “antiprotozoal activity (in words)” value (Histomonas meleagridis [9]) was “effective” and the “antiprotozoal activity (in words)” value (Trichomonas foetus) was “effective”. The “anthelmintic activity (in words)” value (Syphacia obvelata [10]) was “effective” and the “antibiotic activity (in words)” value (bacteria) was “rather weak antibiotic activity”.
